This is an account of results in publication PMC8286840, “Identifying SARS-CoV-2 antiviral compounds by screening for small molecule inhibitors of Nsp3 papain-like protease” (Biochemical Journal, 2021).

Counter-ions that a name gives are not always drawn. Like-named read-outs stand apart in the source and are kept apart here.

Experiment [1] addresses T1, SARS-CoV-2 PLpro (nsp3 1564–1878) (Severe acute respiratory syndrome coronavirus 2, UniProt P0DTD1). Briefly: biochemical. To be noted: low concentration screen, read-out: % of control remaining. More on the design: FRET-quenched peptide (Pro3) cleavage by PLpro, 10 min pre-incubation, slope over 20 min, normalised to no-compound control.
The target in experiment [2] is T1, SARS-CoV-2 PLpro (nsp3 1564–1878). The experiment in a line: biochemical. To be noted: high concentration screen, read-out: % of control remaining. Set-up: FRET-quenched peptide (Pro3) cleavage by PLpro, 10 min pre-incubation, slope over 20 min, normalised to no-compound control.

For the compound `O=C1Cc2c([nH]c3ccc(Br)cc23)-c2ccccc2N1` [Kenpaullone], the figures for the remaining activity at 1.25 µM in experiment [1] (Well no.=783) and in experiment [1] (Well no.=2554) were 102% and 104%, respectively. For the same compound, the remaining activity at 3.75 µM in experiment [2] (Well no.=783) was determined as 102%; in experiment [2] (Well no.=2554), 100%.
For `COc1cc(Nc2ncc3ccn(-c4cccc(CCC#N)c4)c3n2)cc(OC)c1OC` [Keratinocyte Differentiation Inducer], in experiment [1] (Well no.=2379), the remaining activity at 1.25 µM was 101%. Also, the remaining activity at 3.75 µM in experiment [2] (Well no.=2379) is 103%.
For `O=C(c1ccc(F)cc1)C1CCN(CCn2c(=O)[nH]c3ccccc3c2=O)CC1` [Ketanserin (tartrate)], the remaining activity at 1.25 µM in experiment [1] (Well no.=6519) was 100%. In addition, the remaining activity at 3.75 µM in experiment [2] (Well no.=6519) was found to be 103%.
As to `O=C(c1ccc(F)cc1)C1CCN(CCn2c(=O)[nH]c3ccccc3c2=O)CC1` [Ketanserin tartrate], in experiment [1] (Well no.=1515), the remaining activity at 1.25 µM was found to be 93.9%. In experiment [2] (Well no.=1515), the remaining activity at 3.75 µM was determined as 95.4%.
Consider `O=C(c1ccc(F)cc1)C1CCN(CCn2c(=O)[nH]c3ccccc3c2=O)CC1` [Ketanserin], for which the remaining activity at 1.25 µM in experiment [1] (Well no.=2106) came to 94.1%; in experiment [1] (Well no.=6859), 101%. The remaining activity at 3.75 µM in experiment [2] (Well no.=2106) worked out at 95.2%; in experiment [2] (Well no.=6859) it was 99%.
Turning to `CC1(C)C2CCC1(C(=O)O)C(=O)C2` (stereo not shown) [Ketopinic acid], the remaining activity at 1.25 µM in experiment [1] (Well no.=3353) was found to be 92.9%. Further, the remaining activity at 3.75 µM in experiment [2] (Well no.=3353) was 96.9%.
As for `O=C(c1ccccc1)c1ccc2n1CCC2C(=O)O` (stereo not shown) [Ketorolac tris salt], in experiment [1] (Well no.=925), the remaining activity at 1.25 µM worked out at 108%. The remaining activity at 3.75 µM in experiment [2] (Well no.=925) was determined as 103%.
For `CN1CCC(=C2c3ccccc3CC(=O)c3sccc32)CC1` [Ketotifen (fumarate)], the remaining activity at 1.25 µM in experiment [1] (Well no.=7421) is 100%. Also, the remaining activity at 3.75 µM in experiment [2] (Well no.=7421) was 97%.
Turning to `CN1CCC(=C2c3ccccc3CC(=O)c3sccc32)CC1` [Ketotifen fumarate], the remaining activity at 1.25 µM in experiment [1] (Well no.=1069) is 101%. The remaining activity at 3.75 µM in experiment [2] (Well no.=1069) stood at 95.3%.
With `CN1CCC(=C2c3ccccc3CC(=O)c3sccc32)CC1` [Ketotifen], the remaining activity at 1.25 µM in experiment [1] (Well no.=2056) was determined as 108%. For the same compound, the remaining activity at 3.75 µM in experiment [2] (Well no.=2056) turned out to be 109%.
For the compound `N#CCCCSC(=N)N` [Kevetrin (hydrochloride)], the remaining activity at 1.25 µM in experiment [1] (Well no.=6250) amounted to 103%. In addition, the remaining activity at 3.75 µM in experiment [2] (Well no.=6250) turned out to be 103%.
For `COc1c2occc2c(OC)c2c(=O)cc(C)oc12` [Khellin], the remaining activity at 1.25 µM in experiment [1] (Well no.=3436) turned out to be 92.2%. The remaining activity at 3.75 µM in experiment [2] (Well no.=3436) stood at 94.1%.
On to `COC(=O)CCSCc1ccc(-c2onc(C)c2NC(=O)OC(C)c2ccccc2Cl)cc1` (stereo not shown) [Ki16198], for which the remaining activity at 1.25 µM in experiment [1] (Well no.=5219) was 89.4%. Also, the remaining activity at 3.75 µM in experiment [2] (Well no.=5219) is 96.1%.
For the compound `Cc1noc(-c2ccc(CSCCC(=O)O)cc2)c1NC(=O)OC(C)c1ccccc1Cl` (stereo not shown) [Ki16425], the remaining activity at 1.25 µM in experiment [1] (Well no.=7955) was 95.2%. The remaining activity at 3.75 µM in experiment [2] (Well no.=7955) was determined as 96.5%.
With `COc1cc(Oc2ccnc3cc(OC)c(OC)cc23)ccc1NC(=O)NC(C)c1nccs1` (stereo not shown) [Ki20227], in experiment [1] (Well no.=2935), the remaining activity at 1.25 µM was found to be 98.2%. For the same compound, the remaining activity at 3.75 µM in experiment [2] (Well no.=2935) is 102%.
As for `Cc1cc(/C=N/NC(=O)c2cc(Br)c(O)c(Br)c2)c(C)n1-c1cccc([N+](=O)[O-])c1` [Kinesore], the remaining activity at 1.25 µM in experiment [1] (Well no.=7784) stood at 93.8%. For the same compound, in experiment [2] (Well no.=7784), the remaining activity at 3.75 µM was found to be 91.7%.
As for `OC[C@H]1O[C@@H](n2cnc3c(NCc4ccco4)ncnc32)[C@H](O)[C@@H]1O` [Kinetin riboside], the remaining activity at 1.25 µM in experiment [1] (Well no.=6632) was found to be 91.8%. In addition, the remaining activity at 3.75 µM in experiment [2] (Well no.=6632) came to 96.7%.
Regarding `c1coc(CNc2ncnc3[nH]cnc23)c1` [Kinetin], the remaining activity at 1.25 µM in experiment [1] (Well no.=3358) worked out at 95.6%. In experiment [2] (Well no.=3358), the remaining activity at 3.75 µM amounted to 97.3%.
For `Cc1ccc(NC(=S)NNc2c([N+](=O)[O-])cc(C(F)(F)F)cc2[N+](=O)[O-])cc1Cl` [Kobe0065], the remaining activity at 1.25 µM in experiment [1] (Well no.=7436) was determined as 103%. In addition, in experiment [2] (Well no.=7436), the remaining activity at 3.75 µM was 106%.
As to `O=C(O)c1cc(=O)c2ccccc2[nH]1` [Kynurenic acid], the remaining activity at 1.25 µM came to 97.8% in experiment [1] (Well no.=1117) and 99.6% in experiment [1] (Well no.=7403). The remaining activity at 3.75 µM in experiment [2] (Well no.=1117) worked out at 99.5%; in experiment [2] (Well no.=7403), 99.4%.
`N[C@@H](CC(=O)O)C(=O)O` [L -Aspartic acid hemimagnesium salt hydrate]: the remaining activity at 1.25 µM in experiment [1] (Well no.=5897) was 103%. Also, in experiment [2] (Well no.=5897), the remaining activity at 3.75 µM was 105%.
For the compound `NC[C@@H](O)c1ccc(O)c(O)c1` [L(-)-Norepinephrine bitartrate], in experiment [1] (Well no.=58), the remaining activity at 1.25 µM came to 102%. In addition, the remaining activity at 3.75 µM in experiment [2] (Well no.=58) came out at 99.2%.
For the compound `N[C@@H](CCCC(=O)O)C(=O)O` [L-2-aminoadipic acid], the remaining activity at 1.25 µM in experiment [1] (Well no.=52) came to 97.1%. Moreover, the remaining activity at 3.75 µM in experiment [2] (Well no.=52) is 97.4%.
Consider `COC(=O)[C@@H](N)Cc1ccc(O)c(O)c1` [L-3,4-Dihydroxyphenylalanine methyl ester hydrochloride], for which the remaining activity at 1.25 µM in experiment [1] (Well no.=541) came to 103%. For the same compound, the remaining activity at 3.75 µM in experiment [2] (Well no.=541) is 103%.
With `N[C@@H](Cc1ccc(O)c(O)c1)C(=O)O` [L-3,4-Dihydroxyphenylalanine], the remaining activity at 1.25 µM in experiment [1] (Well no.=634) worked out at 101%. The remaining activity at 3.75 µM in experiment [2] (Well no.=634) was found to be 105%.
In the case of `N[C@@H](Cc1c[nH]c2ccc(O)cc12)C(=O)O` [L-5-Hydroxytryptophan], the remaining activity at 1.25 µM in experiment [1] (Well no.=7409) worked out at 99.9%. Also, in experiment [2] (Well no.=7409), the remaining activity at 3.75 µM turned out to be 104%.
Take `c1ccc(CN2CCC3(CCCc4ccccc43)CC2)cc1` [L-687,384 hydrochloride]: the remaining activity at 1.25 µM in experiment [1] (Well no.=1123) stood at 96.4%. Moreover, the remaining activity at 3.75 µM in experiment [2] (Well no.=1123) was determined as 97.2%.
Consider `Ic1ccccc1CN[C@@H]1C2CCN(CC2)[C@@H]1C(c1ccccc1)c1ccccc1` [L-703,606 oxalate], for which the remaining activity at 1.25 µM in experiment [1] (Well no.=964) stood at 96.7%. Moreover, in experiment [2] (Well no.=964), the remaining activity at 3.75 µM is 96%.
Regarding `FC(F)(F)c1cc(CO[C@H]2CCCN[C@H]2c2ccccc2)cc(C(F)(F)F)c1` [L-733,060 hydrochloride], the remaining activity at 1.25 µM in experiment [1] (Well no.=918) was determined as 99.8%. The remaining activity at 3.75 µM in experiment [2] (Well no.=918) turned out to be 103%.
Turning to `Clc1ccc(N2CCN(Cc3c[nH]c4ncccc34)CC2)cc1` [L-745,870 hydrochloride], the remaining activity at 1.25 µM in experiment [1] (Well no.=1108) turned out to be 92.3%. Further, in experiment [2] (Well no.=1108), the remaining activity at 3.75 µM turned out to be 95.9%.
Turning to `Ic1ccc(N2CCN(Cc3c[nH]c4ncccc34)CC2)cc1` [L-750,667 trihydrochloride], the remaining activity at 1.25 µM in experiment [1] (Well no.=774) worked out at 102%. In addition, the remaining activity at 3.75 µM in experiment [2] (Well no.=774) was 106%.
Regarding `COc1ccc(Br)cc1S(=O)(=O)NC(=O)/C=C/c1ccccc1Cc1ccc2ccccc2c1` [L-798106], the remaining activity at 1.25 µM in experiment [1] (Well no.=5661) came to 91.7%. In experiment [2] (Well no.=5661), the remaining activity at 3.75 µM was found to be 95%.
